Measured values reported in patent publication US5043165A, “Novel liposome composition for sustained release of steroidal drugs” (priority 1988, dated 1991).
Entries after “also recorded” stand apart in the source; their conditions may differ.

Experiments:
[1] = Intrathecal administration: drug in cranial and spinal compartments and cerebrospinal fluid; details: 50 ul, 20 mg/ml
[2] = in vivo; cited from earlier work
[3] = TLC assay of lung samples for metabolism of BDP before absorption; type: in vivo, rats; details: thin layer chromatographic assay
[4] = Partition coefficient between octanol and phosphate buffer saline; type: physicochemical; details: pH 7.4
[5] = rat, in vivo
From the text: The resulting slopes and intercepts were used as estimates of the absorption rate constant (Ka) and the amount of drug in the lungs at zero time, respectively. […] These later values relate to the elimination of radiolabel already released from the liposomes and distributed to the lungs. The amount of drug in the lungs at time zero can be used to determine the amount of free drug in the formulation, since free drug is very rapidly absorbed from the lungs (Dose=free drug+amount in lungs at t=0). This amount also includes any liposome associated drug that was rapidly released ("burst" effect).
All studies were performed in male Sprague-Dawley rats weighing 250 to 450 g. After fasting for 16 hours, animals were anesthetized by i.m. injection of ketamine (25 mg/kg), xylazine (5 mg/kg) and acepromazine (0.5 mg/ml). During the procedure the animal's body temperature was maintained with a 37° C. heating pad. Additional anesthetic was administered as required, using half the original dose. A midline incision was made in the neck and the right jugular vein and left carotid artery were cannulated with short lengths of polyethylene tubing to which a 23 ga Luer stub adapter (Clay Adams #7565) and plastic 3-way stopcock (Argyle #173518) were attached. Blood samples (0.5-4 ml) were removed from the carotid arterial cannula after first flushing with fresh blood to clear the line. […]
Blood samples were removed at four time points during the study from each rat, centrifuged, and the serum was removed and stored frozen (-20°C.) until assayed. […] The homogenate was briefly centrifuged and measured aliquots of the supernate removed to Teflon-stoppered glass tubes which were stored at -20° C. or below until assayed.
The actual dose administered in each study was determined by measurement of duplicate dose control samples of the formulation which were delivered by the same apparatus used in dosing the animals.
In some studies, the plasma concentration of radiolabel was also measured over the course of the experiment.

[6] = Plasma pharmacokinetics of 14C-BDP after i.v. injection or intratracheal instillation; type: in vivo, male Sprague-Dawley rats; details: rat
Procedure: In order to determine the rate of absorption of the steroidal drug into the plasma after intratracheal administration, various formulations containing either the free steroid or steroid encapsulated in liposomes were prepared and tested.
The free drug control was administered intravenously to provide relative basis for measurement of bioavailability. […] The resulting plasma profiles, given in FIG. 1, illustrate the physiological removal of steroid from the blood circulation. […] As will be seen from FIG. 2, the rate of absorption of free steroid from lungs to the plasma is rapid and the physiological removal from the plasma follows the same course as that of the free drug. […] Thus, the rate of absorption from lungs to plasma of free steroid and steroid encapsulated in conventional liposomes is not much different and follows similar curve.
Plasma and lung levels of radiolabel were measured as previously described. The decrease in plasma concentration versus time following free drug administration was biphasic (FIG. 4).

[7] = mouse, in vivo, iv
Procedure: The nonconventional steroidal liposome composition prepared according to Example III was administered intravenously and the ability of mouse organs to bind and/or take up the radiolabel was studied.
All experiments were carried out using groups of male ICR mice weighing approximately 25 grams (the weight of any individual mouse was not more than 10% different from the group mean weight). Doses of nonconventional liposomes containing beclomethosome dipropionate spiked according to Example III were administered to a mouse via a tail vein. At the end of the experimental period mice were lightly anesthesized with diethyl ether and a 1 ml blood sample was rapidly removed from the jugular vein with a heparinized syringe. […]
All organ and carcass samples were stored at -20° prior to analysis. […] Dried samples were analyzed for total ^14 C radioactivity by scintillation counting following combustion in a Packard Sample Oxidizer, Combustions were carried out in series, with the inclusion of appropriate blanks. A duplicate sample from every third animal was analyzed to monitor the combustion reproducibility. […] Total radioactivity in liver, spleen, carcass and 1.0 ml blood was calculated and converted to percent of encapsulated dose. […] Total radioactivity in vivo was estimated by summing values for liver, spleen, total blood volume and carcass.

Structure (SMILES): C[C@]12CCC(=O)C=C1CC[C@@H]1[C@@H]2C(=O)C[C@@]2(C)[C@H]1CC[C@]2(O)C(=O)CO [free cortisone, cortisone]
- time to almost complete disappearance from cranial or spinal compartments [1]: ≤ 2.8 h
- time to elimination from cerebrospinal fluid [1]: ≤ 2.8 h

Structure (SMILES): CCC(=O)OCC(=O)[C@@]1(OC(=O)CC)[C@@H](C)C[C@H]2[C@@H]3CCC4=CC(=O)C=C[C@]4(C)[C@@]3(Cl)[C@@H](O)C[C@@]21C [BDP, beclomethasone dipropionate]
- secondary adverse reactions [2]: localized infection of the mouth and pharynx with Candida albicans or Aspergillus niger, hoarseness and dry mouth
- metabolism of BDP prior to leaving the lungs [3]: no detectable metabolism of BDP prior to leaving the lungs
- BDP associated with the octanol (octanol/phosphate buffer saline partition) [4]: 95%
- apparent half-life in lungs (elimination of radiolabel already released, not absorption) [5]: 3.0 h
- drug absorbed before the first time point [5]: over 98%
- radiolabel removed/absorbed from the lungs ([5]; iv): 99.7%
- absorption from lungs (in words) ([6]; intratracheal instillation, listed as free BDP): rapid; also recorded: quickly removed from the lungs into plasma
- plasma kinetics (in words) ([6]; compared with free drug): biphasic

Structure (SMILES): C[C@H]1C[C@H]2[C@@H]3CCC4=CC(=O)C=C[C@]4(C)[C@@]3(Cl)[C@@H](O)C[C@]2(C)[C@@]1(O)C(=O)CO [Free beclomethasone, beclomethasone]
- persistence in plasma [7]: disappears rapidly from the plasma
